Data on 73 molecules can be found in US11319318B2, “Pyridinones and isoquinolinones as inhibitors of the bromodomain BRD9” (Boehringer Ingelheim International GmbH, priority 2015, dated 2022).

In this assay the target is T1, bromodomain of BRD9 (GST-BRD9 aa 130-259) / H3 K9/14/18/23Ac(1-28) peptide (Homo sapiens, UniProt Q9H8M2).
T1 construct: The protein corresponding to amino acids 130-259 that contains the bromodomain of BRD9; made in house; host or cells: E. coli
T1 sequence (Q9H8M2 130-259): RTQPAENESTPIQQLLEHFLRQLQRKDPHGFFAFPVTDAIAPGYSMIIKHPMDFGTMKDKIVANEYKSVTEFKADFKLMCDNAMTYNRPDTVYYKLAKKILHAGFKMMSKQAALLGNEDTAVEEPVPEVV
Kind of assay: BRD9-H3 tetra-acetylated Peptide Inhibition AlphaScreen. It is filed as binding. In general terms: In Alpha technology, singlet oxygen from a donor bead excites a nearby acceptor bead.
Excerpt: Biological Methods BRD9-H3 tetra-acetylated Peptide Inhibition AlphaScreen
This assay is used to identify compounds which inhibit the interaction of the bromodomain of BRD9 with a tetra-acetylated peptide based on the sequence of histone H3 (H3 K9/14/18/23Ac (1-28)).
AlphaScreen Beads (Perkin Elmer):
AlphaLISA Glutathione Acceptor Beads
AlphaScreen Streptavidin Donor Beads
The assay is done in a darkened room below 100 Lux.
Compounds are dispensed onto assay plates using an Access Labcyte Workstation with the Labcyte Echo 550 from a DMSO solution. For the chosen highest concentration of 100 μM, 150 nl of compound solution are transferred from a 10 mM DMSO solution. […] DMSO is added such that every well has a total of 150 nl of DMSO.
After 60 min at room temperature the signal is measured in a PerkinElmer Envision HTS Multilabel Reader using the AlphaScreen specifications from PerkinElmer.
Each plate contains negative controls where biotinylated H3 K9/14/18/23Ac(1-28) peptide and GST-BRD9 are left out and replaced by assay buffer. Negative control values are entered as low basis value when using the software GraphPad Prism for calculations.
A word on the IC50: it is the concentration at which inhibition is half-maximal. High values mean lower potency, low ones higher potency. `Cc1cc(-c2ccc([C@@H](C)N3CCCC3)cc2)cn(C)c1=O` [Compound I-1, 1,3-Dimethyl-5-[4-((R)-1-pyrrolidin-1-yl-ethyl)-phenyl]-1H-pyridin-2-one] returned an IC50 of 105 nM.

As for `Cc1cc(-c2ccc([C@H](C)N3CCCC3)cc2)cn(C)c1=O` [Compound I-2, 1,3-dimethyl-5-[4-((S)-1-pyrrolidin-1-yl-ethyl)-phenyl]-1H-pyridin-2-one], the 50% inhibitory concentration (IC50) amounted to 145 nM.

With `Cc1cc(-c2ccc([C@H](C)N3CCCCC3)cc2)cn(C)c1=O` [Compound I-3], the IC50 was found to be 157 nM.

On to `Cc1cc(-c2ccc([C@@H](C)N3CCCCC3)cc2)cn(C)c1=O` [Compound I-4], for which the IC50 was 172 nM.

Molecule `Cc1cc(-c2ccc(C(C)N3CCCC3)cc2)cn(C)c1=O` (stereo not shown) [Compound I-5] showed an IC50 of 137 nM.

In the case of `Cc1cc(-c2ccc(C(C)N3CCCCC3)cc2)cn(C)c1=O` (stereo not shown) [Compound I-6], half-maximal inhibition (IC50) required 318 nM.

Turning to `Cc1cc(-c2ccc(S(=O)(=O)NCCN(C)C)c(OC(F)(F)F)c2)cn(C)c1=O` [Compound I-7], the midpoint of inhibition, the IC50, lay at 326 nM.

Take `Cc1cc(-c2ccc(S(=O)(=O)N(C)C)cc2)cn(C)c1=O` [Compound I-8]: the half-maximal inhibitory concentration (IC50) amounted to 976 nM.

`Cc1cc(-c2ccc(C(C)N3CCOCC3)cc2)cn(C)c1=O` (stereo not shown) [Compound I-10] yielded an IC50 of 1080 nM.

`Cc1cc(-c2ccc(C(C)N(C)C)cc2)cn(C)c1=O` (stereo not shown) [Compound I-11] yielded an IC50 of 1430 nM.

Molecule `CNS(=O)(=O)c1ccc(-c2cc(C)c(=O)n(C)c2)cc1` [Compound I-12] yielded an IC50 of 1550 nM.

`Cc1cc(-c2ccc(S(=O)(=O)C(C)C)cc2)cn(C)c1=O` [Compound I-13] came in with an IC50 of 1590 nM.

Molecule `Cc1cc(-c2cccc(CN(C)C)c2)cn(C)c1=O` [Compound I-17] came in with a 50% inhibitory concentration (IC50) of 2540 nM.

Consider `Cc1cc(-c2ccc(CN3CCN(C)CC3)cc2)c(C)n(C)c1=O` [Compound I-21], for which the midpoint of inhibition, the IC50, lay at 1690 nM.

In turn, `Cc1c(-c2ccc(C(=O)N3CCNCC3)cc2)cc(I)c(=O)n1C` [Compound I-22] gave an IC50 of 235 nM.

`Cc1cc(-c2cccc(NS(C)(=O)=O)c2)cn(C)c1=O` [Compound I-31, N-[3-(1,5-Dimethyl-6-oxo-1,6-dihydro-pyridin-3-yl)-phenyl]-methanesulfonamide]: the IC50 amounted to 1220 nM.

Molecule `COc1cc(-c2cc(C)c(=O)n(C)c2)ccc1CN1CC(O)C1` [Compound I-47, 5-[4-(3-Hydroxy-azetidin-1-ylmethyl)-3-methoxy-phenyl]-1,3-dimethyl-1H-pyridin-2-one] displayed an IC50 of 52 nM.

Regarding `Cc1cc(-c2ccc3c(c2)CNC3)cn(C)c1=O` [Compound I-49, 5-(2,3-dihydro-1H-isoindol-5-yl)-1,3-dimethyl-1H-pyridin-2-one], the 50% inhibitory concentration (IC50) stood at 65 nM.

As to `COc1cc(-c2cc(C)c(=O)n(C)c2)ccc1CN1CC(OC)C1` [Compound I-50], the IC50 was found to be 74 nM.

`COc1cc(-c2cc(C)c(=O)n(C)c2)ccc1CN1C[C@@H]2CC1CN2C` [Compound I-51] came in with an IC50 of 78 nM.

In turn, `COc1cc(-c2cc(C)c(=O)n(C)c2)cc(OC)c1CN1CCNCC1` [Compound I-52] displayed an IC50 of 87 nM.

Molecule `COc1cc(-c2cc(C)c(=O)n(C)c2)ccc1C1(N(C)C)CC1` [Compound I-53] had an IC50 of 97 nM.

Molecule `COc1cc(-c2cc(C)c(=O)n(C)c2)ccc1CN1C[C@@H]2CC1CN2` [Compound I-54] showed an IC50 of 121 nM.

With `COc1cc(-c2cc(C)c(=O)n(C)c2)c(OC)cc1CN1CC(O)C1` [Compound I-55], the IC50 was determined as 124 nM.

`COc1cc(S(=O)(=O)N2CC(O)C2)c(OC)cc1-c1cc(C)c(=O)n(C)c1` [Compound I-56] returned an IC50 of 131 nM.

On to `COc1cc(S(=O)(=O)NCCN(C)C)c(OC)cc1-c1cc(C)c(=O)n(C)c1` [Compound I-57], for which the IC50 amounted to 132 nM.

In the case of `Cc1cc(-c2ccc(C3(N(C)C)CC3)cc2)cn(C)c1=O` [Compound I-58], the IC50 was 137 nM.

Regarding `COCc1c(OC)cc(-c2cc(C)c(=O)n(C)c2)cc1OC` [Compound I-59], the IC50 turned out to be 142 nM.

`Cc1cc(-c2cc(C)c(=O)n(C)c2)ccc1C1(N(C)C)CC1` [Compound I-60] registered an IC50 of 143 nM.

In turn, `CCC(CC)(c1ccc(-c2cc(C)c(=O)n(C)c2)cc1OC)N1CCN(C)CC1` [Compound I-61] had an IC50 of 179 nM.

For the molecule `COc1cc(-c2cc(C)c(=O)n(C)c2)c(OC)cc1CN1CCN(C)CC1` [Compound I-62], the IC50 was found to be 181 nM.

Turning to `COc1cc(-c2cc(C)c(=O)n(C)c2)cc(OC)c1CN1CCN(C)CC1` [Compound I-63], the IC50 amounted to 203 nM.

As for `Cc1cc(-c2ccc(S(=O)(=O)N3CCNCC3)cc2)cn(C)c1=O` [Compound I-64], the IC50 was 211 nM.

Take `COc1cc(-c2cc(C)c(=O)n(C)c2)ccc1S(=O)(=O)NCCN(C)C` [Compound I-65]: the IC50 was 213 nM.

The molecule `Cc1cc(-c2ccc(C3(N(C)C)CCC3)cc2)cn(C)c1=O` [Compound I-66] came in with a half-maximal inhibitory concentration (IC50) of 213 nM.

The molecule `COc1cc(-c2cc(C)c(=O)n(C)c2)ccc1C1(N2CCN(C)CC2)CC1` [Compound I-67] displayed an IC50 of 215 nM.

Molecule `Cc1cc(-c2cc(C)c(=O)n(C)c2)ccc1S(=O)(=O)NCCN(C)C` [Compound I-68] had an IC50 of 223 nM.

Consider `COc1cc(S(=O)(=O)N2CCN(C)CC2)c(OC)cc1-c1cc(C)c(=O)n(C)c1` [Compound I-70], for which the IC50 was found to be 237 nM.

Consider `CCc1cc(-c2cc(C)c(=O)n(C)c2)cc(OC)c1C(O)CC` (stereo not shown) [Compound I-71], for which the IC50 was 289 nM.

Molecule `COc1cc(-c2cc(C)c(=O)n(C)c2)ccc1CN1C[C@H]2C[C@@H]1CN2C` [Compound I-72] yielded an IC50 of 335 nM.

Molecule `Cc1cc(-c2ccc(C(=O)C3CCNCC3)cc2)cn(C)c1=O` [Compound I-73] registered an IC50 of 361 nM.

For `COc1cc(-c2cc(C)c(=O)n(C)c2)ccc1S(=O)(=O)N1CC(O)C1` [Compound I-74], the IC50 came to 371 nM.

`Cc1cc(-c2cc(C)c(=O)n(C)c2)ccc1S(=O)(=O)N1CC(O)C1` [Compound I-75] displayed an IC50 of 393 nM.

`COc1cc(-c2cc(C)c(=O)n(C)c2)ccc1C(=O)N1C[C@@H]2CC1CN2` [Compound I-76] had an IC50 of 409 nM.

On to `COc1cc(-c2cc(C)c(=O)n(C)c2)ccc1C(=O)N1C[C@@H]2CC1CN2C` [Compound I-77], for which the IC50 worked out at 418 nM.

Regarding `CCOc1cc(-c2cc(C)c(=O)n(C)c2)ccc1CN1CC[N+](C)(CC)CC1` [Compound I-81], the IC50 was found to be 502 nM.

In the case of `COc1cc(-c2cc(C)c(=O)n(C)c2)ccc1S(=O)(=O)N1CCN(C)CC1` [Compound I-82], the IC50 was determined as 515 nM.

With `Cc1cc(-c2cc(C)c(=O)n(C)c2)ccc1S(=O)(=O)N1CCN(C)CC1` [Compound I-83], 521 nM corresponded to half-maximal inhibition (IC50).

On to `Cc1cc(-c2cc(C)c(=O)n(C)c2)ccc1C1(N2CCN(C)CC2)CC1` [Compound I-84], for which half-maximal inhibition (IC50) was put at 618 nM.

As for `Cc1cc(-c2ccc3c(c2)CCNC3)cn(C)c1=O` [Compound I-85], the IC50 was determined as 708 nM.

The molecule `COc1cc(-c2cc(C)c(=O)n(C)c2)ccc1CN1CCN(C)C(C)C1` (stereo not shown) [Compound I-86] displayed an IC50 of 777 nM.

For `Cc1cc(-c2cccc(CN)c2)cn(C)c1=O` [Compound I-87], the IC50 was found to be 849 nM.

For the molecule `Cc1cc(-c2ccc3c(c2)CNCC3)cn(C)c1=O` [Compound I-90], the IC50 is 950 nM.

`Cc1cc(-c2cc(C)c(=O)n(C)c2)ccc1CN` [Compound I-92] registered an IC50 of 1040 nM.

In turn, `Cc1cc(-c2ccc(C3(N4CCN(C)CC4)CC3)cc2)cn(C)c1=O` [Compound I-95] registered an IC50 of 1210 nM.

Molecule `COc1cc(-c2cc(C)c(=O)n(C)c2)ccc1CN` [Compound I-96] had an IC50 of 1250 nM.

Turning to `Cc1cc(-c2cccc(C3CCCCN3)c2)cn(C)c1=O` (stereo not shown) [Compound I-98], the IC50 came to 2360 nM.

`COc1cc(-c2cn(C)c(=O)c(C)c2C)cc(OC)c1CN1CC(O)C1` [Compound I-103] had a half-inhibitory concentration (IC50) of 37 nM.

Turning to `COc1cc(-c2cn(C)c(=O)c(C)c2C)c(OC)cc1CN1CC(O)C1` [Compound I-104], half-maximal inhibition (IC50) was put at 39 nM.

`Cc1c(-c2ccc3c(c2)CNC3)cn(C)c(=O)c1C` [Compound I-106] had an IC50 of 103 nM.

`COCc1c(OC)cc(-c2cn(C)c(=O)c(C)c2C)cc1OC` [Compound I-107] came in with an IC50 of 137 nM.

Consider `COc1cc(-c2cn(C)c(=O)c(C)c2C)ccc1CN1C[C@@H]2CC1CN2C` [Compound I-108], for which 152 nM corresponded to half-maximal inhibition (IC50).

For `COc1cc(-c2cn(C)c(=O)c(C)c2C)ccc1CN1C[C@@H]2CC1CN2` [Compound I-109], the IC50 was 193 nM.

Turning to `COc1cc(S(=O)(=O)N(C)CCN(C)C)c(OC)cc1-c1cn(C)c(=O)c(C)c1C` [Compound I-110], the IC50 amounted to 197 nM.

Regarding `COc1cc(-c2cn(C)c(=O)c(C)c2C)ccc1C1(N2CCN(C)CC2)CC1` [Compound I-111], 226 nM corresponded to half-maximal inhibition (IC50).

Molecule `Cc1cc(-c2cn(C)c(=O)c(C)c2C)ccc1C1(N2CCN(C)CC2)CC1` [Compound I-112] displayed an IC50 of 320 nM.

Turning to `COc1cc(-c2cn(C)c(=O)c(C)c2C)ccc1CN1C[C@H]2C[C@@H]1CN2C` [Compound I-113], 348 nM corresponded to half-maximal inhibition (IC50).

Consider `Cc1c(-c2ccc(C(=O)C3CCNCC3)cc2)cn(C)c(=O)c1C` [Compound I-115], for which the IC50 was determined as 740 nM.

In the case of `Cc1c(-c2ccc3c(c2)CCNC3)cn(C)c(=O)c1C` [Compound I-116], the IC50 is 744 nM.

Take `Cc1cc(-c2cn(C)c(=O)c(C)c2C)ccc1C(=O)N1CCN(C)CC1` [Compound I-117]: the IC50 is 1400 nM.

On to `COc1cc(-c2cc(C)c(=O)n(C)c2C)cc(OC)c1CN1CC(O)C1` [Compound I-118], for which the IC50 came to 10 nM.

The molecule `COc1cc(-c2cc(C)c(=O)n(C)c2C)ccc1CN1CC(O)C1` [Compound I-119] had an IC50 of 55 nM.

For `COc1cc(-c2cc(C)c(=O)n(C)c2C)ccc1C1(N(C)C)CCC1` [Compound I-121], the IC50 is 163 nM.
